Where two headings read alike, the source gives them in different places.
Key:
Assay in all cases: Glasshouse assay for herbicidal activity (pre- and post-emergence), percentage phytotoxicity
Assay type in all cases: in vivo
[1] = test system: Alopecurus myosuroides (ALOMY); settings: Alopecurus myosuroides
Summary of the method: (§1)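 Herbicide was applied to potted plants sown in standard soil, one day after sowing for PRE and after about 12 days for POST. Visual percentage damage ratings followed at 15 DAA (POST) and 20 DAA (PRE).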

[2] = test system: Echinochloa crus-galli (ECHCG); settings: Echinochloa crus-galli
Summary of the method: as §1

Avena fatua (AVEFA) = settings: Avena fatua
Summary of the method: as §1

Lolium perenne (LOLPE) = settings: Lolium perenne
Summary of the method: as §1

[3] = post-emergence, 360 h, POST-emergence, rate 250 g/ha, visual score 15 DAA (100%=total damage, 0%=no damage), read-out: Post-emergence herbicidal activity (percentage phytotoxicity) ALOMY POST
[4] = pre-emergence, 480 h, PRE-emergence, rate 250 g/ha, visual score 20 DAA (100%=total damage, 0%=no damage), read-out: Pre-emergence herbicidal activity (percentage phytotoxicity) ALOMY PRE
[5] = post-emergence, 360 h, POST-emergence, rate 250 g/ha, visual score 15 DAA (100%=total damage, 0%=no damage), read-out: Post-emergence herbicidal activity (percentage phytotoxicity) ECHCG POST
[6] = pre-emergence, 480 h, PRE-emergence, rate 250 g/ha, visual score 20 DAA (100%=total damage, 0%=no damage), read-out: Pre-emergence herbicidal activity (percentage phytotoxicity) ECHCG PRE
[7] = post-emergence, 360 h, POST-emergence, rate 250 g/ha, visual score 15 DAA (100%=total damage, 0%=no damage), read-out: Post-emergence herbicidal activity (percentage phytotoxicity) AVEFA POST
[8] = pre-emergence, 480 h, PRE-emergence, rate 250 g/ha, visual score 20 DAA (100%=total damage, 0%=no damage), read-out: Pre-emergence herbicidal activity (percentage phytotoxicity) AVEFA PRE
[9] = post-emergence, 360 h, POST-emergence, rate 250 g/ha, visual score 15 DAA (100%=total damage, 0%=no damage), read-out: Post-emergence herbicidal activity (percentage phytotoxicity) LOLPE POST
[10] = pre-emergence, 480 h, PRE-emergence, rate 250 g/ha, visual score 20 DAA (100%=total damage, 0%=no damage), read-out: Pre-emergence herbicidal activity (percentage phytotoxicity) LOLPE PRE
[11] = post-emergence, 360 h, Rate 250 g/ha, post-emergence, assessed visually 15 DAA, 100%=total damage, 0%=no damage, read-out: Post-emergence herbicidal activity (percentage phytotoxicity) ALOMY POST
[12] = pre-emergence, 480 h, Rate 250 g/ha, pre-emergence, assessed visually 20 DAA, 100%=total damage, 0%=no damage, read-out: Pre-emergence herbicidal activity (percentage phytotoxicity) ALOMY PRE
[13] = post-emergence, 360 h, Rate 250 g/ha, post-emergence, assessed visually 15 DAA, 100%=total damage, 0%=no damage, read-out: Post-emergence herbicidal activity (percentage phytotoxicity) ECHCG POST
[14] = pre-emergence, 480 h, Rate 250 g/ha, pre-emergence, assessed visually 20 DAA, 100%=total damage, 0%=no damage, read-out: Pre-emergence herbicidal activity (percentage phytotoxicity) ECHCG PRE
[15] = post-emergence, 360 h, Rate 250 g/ha, post-emergence, assessed visually 15 DAA, 100%=total damage, 0%=no damage, read-out: Post-emergence herbicidal activity (percentage phytotoxicity) AVEFA POST
[16] = pre-emergence, 480 h, Rate 250 g/ha, pre-emergence, assessed visually 20 DAA, 100%=total damage, 0%=no damage, read-out: Pre-emergence herbicidal activity (percentage phytotoxicity) AVEFA PRE
[17] = post-emergence, 360 h, Rate 250 g/ha, post-emergence, assessed visually 15 DAA, 100%=total damage, 0%=no damage, read-out: Post-emergence herbicidal activity (percentage phytotoxicity) LOLPE POST
[18] = pre-emergence, 480 h, Rate 250 g/ha, pre-emergence, assessed visually 20 DAA, 100%=total damage, 0%=no damage, read-out: Pre-emergence herbicidal activity (percentage phytotoxicity) LOLPE PRE

Row | Structure (SMILES) | pest or weed control at 250 g/ha [1, 3] [%] | pest or weed control at 250 g/ha [1, 4] [%] | pest or weed control at 250 g/ha [2, 5] [%] | pest or weed control at 250 g/ha [2, 6] [%] | pest or weed control at 250 g/ha (Avena fatua (AVEFA); [7]) [%] | pest or weed control at 250 g/ha (Avena fatua (AVEFA); [8]) [%] | pest or weed control at 250 g/ha (Lolium perenne (LOLPE); [9]) [%] | pest or weed control at 250 g/ha (Lolium perenne (LOLPE); [10]) [%] | pest or weed control at 250 g/ha [1, 11] [%] | pest or weed control at 250 g/ha [1, 12] [%] | pest or weed control at 250 g/ha [2, 13] [%] | pest or weed control at 250 g/ha [2, 14] [%] | pest or weed control at 250 g/ha (Avena fatua (AVEFA); [15]) [%] | pest or weed control at 250 g/ha (Avena fatua (AVEFA); [16]) [%] | pest or weed control at 250 g/ha (Lolium perenne (LOLPE); [17]) [%] | pest or weed control at 250 g/ha (Lolium perenne (LOLPE); [18]) [%] | also measured
1 | C=CCNC(=O)CC1CC(=O)C(c2c(C)cc(OCC(F)(F)F)cc2C)C1=O (stereo not drawn) [Compound B209] | 90 | 100 | 100 | 100 | 80 | 80 | 80 | 90 | – | – | – | – | – | – | – | – | –
2 | Cc1cc(-c2ncc(F)cc2F)cc(C)c1C1C(=O)CC(CC(=O)NOCc2ccccc2)C1=O (stereo not drawn) [Compound B402] | – | – | – | – | – | – | – | – | – | – | – | – | – | – | – | – | pest or weed control at 250 g/ha ([1]; post-emergence, 360 h, Rate 250 g/ha, post-emergence, visual assessment 15 DAA, 100%=total damage, 0%=no damage, read-out: Post-emergence herbicidal activity (percentage phytotoxicity) ALOMY POST): 90%; pest or weed control at 250 g/ha ([1]; pre-emergence, 480 h, Rate 250 g/ha, pre-emergence, visual assessment 20 DAA, 100%=total damage, 0%=no damage, read-out: Pre-emergence herbicidal activity (percentage phytotoxicity) ALOMY PRE): 60%; pest or weed control at 250 g/ha ([2]; post-emergence, 360 h, Rate 250 g/ha, post-emergence, visual assessment 15 DAA, 100%=total damage, 0%=no damage, read-out: Post-emergence herbicidal activity (percentage phytotoxicity) ECHCG POST): 100%; pest or weed control at 250 g/ha ([2]; pre-emergence, 480 h, Rate 250 g/ha, pre-emergence, visual assessment 20 DAA, 100%=total damage, 0%=no damage, read-out: Pre-emergence herbicidal activity (percentage phytotoxicity) ECHCG PRE): 80%; pest or weed control at 250 g/ha (Avena fatua (AVEFA); post-emergence, 360 h, Rate 250 g/ha, post-emergence, visual assessment 15 DAA, 100%=total damage, 0%=no damage, read-out: Post-emergence herbicidal activity (percentage phytotoxicity) AVEFA POST): 100%; pest or weed control at 250 g/ha (Avena fatua (AVEFA); pre-emergence, 480 h, Rate 250 g/ha, pre-emergence, visual assessment 20 DAA, 100%=total damage, 0%=no damage, read-out: Pre-emergence herbicidal activity (percentage phytotoxicity) AVEFA PRE): 70%; pest or weed control at 250 g/ha (Lolium perenne (LOLPE); post-emergence, 360 h, Rate 250 g/ha, post-emergence, visual assessment 15 DAA, 100%=total damage, 0%=no damage, read-out: Post-emergence herbicidal activity (percentage phytotoxicity) LOLPE POST): 90%; pest or weed control at 250 g/ha (Lolium perenne (LOLPE); pre-emergence, 480 h, Rate 250 g/ha, pre-emergence, visual assessment 20 DAA, 100%=total damage, 0%=no damage, read-out: Pre-emergence herbicidal activity (percentage phytotoxicity) LOLPE PRE): 80%
3 | COCCCNC(=O)CC1CC(=O)C(c2c(C)cc(-n3cc(Cl)cn3)cc2C)C1=O (stereo not drawn) [Compound B310] | 90 | 90 | 100 | 90 | 100 | 80 | 70 | 90 | – | – | – | – | – | – | – | – | –
4 | Cc1cc(C)c(C2C(=O)CC(CC(=O)N3CCOCC3)C2=O)c(C)c1 (stereo not drawn) [Compound A24] | – | – | – | – | – | – | – | – | 90 | 80 | 100 | 100 | 90 | 90 | 100 | 90 | –
5 | Cc1cc(-c2ncc(Cl)cn2)cc(C)c1C1C(=O)CC(CC(=O)NCc2cccs2)C1=O (stereo not drawn) [Compound A139] | – | – | – | – | – | – | – | – | 10 | 0 | 20 | 90 | 30 | 0 | 10 | 0 | –
6 | Cc1cc(OCC(F)(F)F)cc(C)c1C1C(=O)CC(CC(N)=O)C1=O (stereo not drawn) [Compound B154] | – | – | – | – | – | – | – | – | – | – | – | – | – | – | – | – | pest or weed control at 250 g/ha ([1]; post-emergence, 360 h, 250 g/ha, post-emergence, 15 DAA, visual assessment (100%=total damage, 0%=no damage), read-out: Post-emergence herbicidal activity (percentage phytotoxicity) ALOMY POST): 70%; pest or weed control at 250 g/ha ([1]; pre-emergence, 480 h, 250 g/ha, pre-emergence, 20 DAA, visual assessment (100%=total damage, 0%=no damage), read-out: Pre-emergence herbicidal activity (percentage phytotoxicity) ALOMY PRE): 90%; pest or weed control at 250 g/ha ([2]; post-emergence, 360 h, 250 g/ha, post-emergence, 15 DAA, visual assessment (100%=total damage, 0%=no damage), read-out: Post-emergence herbicidal activity (percentage phytotoxicity) ECHCG POST): 90%; pest or weed control at 250 g/ha ([2]; pre-emergence, 480 h, 250 g/ha, pre-emergence, 20 DAA, visual assessment (100%=total damage, 0%=no damage), read-out: Pre-emergence herbicidal activity (percentage phytotoxicity) ECHCG PRE): 80%; pest or weed control at 250 g/ha (Avena fatua (AVEFA); post-emergence, 360 h, 250 g/ha, post-emergence, 15 DAA, visual assessment (100%=total damage, 0%=no damage), read-out: Post-emergence herbicidal activity (percentage phytotoxicity) AVEFA POST): 70%; pest or weed control at 250 g/ha (Avena fatua (AVEFA); pre-emergence, 480 h, 250 g/ha, pre-emergence, 20 DAA, visual assessment (100%=total damage, 0%=no damage), read-out: Pre-emergence herbicidal activity (percentage phytotoxicity) AVEFA PRE): 50%; pest or weed control at 250 g/ha (Lolium perenne (LOLPE); post-emergence, 360 h, 250 g/ha, post-emergence, 15 DAA, visual assessment (100%=total damage, 0%=no damage), read-out: Post-emergence herbicidal activity (percentage phytotoxicity) LOLPE POST): 70%; pest or weed control at 250 g/ha (Lolium perenne (LOLPE); pre-emergence, 480 h, 250 g/ha, pre-emergence, 20 DAA, visual assessment (100%=total damage, 0%=no damage), read-out: Pre-emergence herbicidal activity (percentage phytotoxicity) LOLPE PRE): 70%
